One compound from US7462647B2, “Pentalfluoroalkanesulfinyl naphthalenes and related estrogen receptor modulators” (Eli Lilly and Company, priority 2003, dated 2008) can be followed below.

SMILES strings stand for the structures.

The test system of experiment [1] is MCF-7 breast adenocarcinoma cells. Briefly: MCF-7 proliferation assay (14C-thymidine), antagonist mode. The class given is cell-based. As for the experimental part:
MCF-7 breast adenocarcinoma cells (ATCC HTB 22) are maintained in MEM (minimal essential medium, phenol red-free, Gibco BRL) supplemented with 10% fetal bovine serum (FBS) (V/V), L-glutamine (2 mM), sodium pyruvate (1 mM), HEPES ((N-[2-hydroxyethyl]piperazine-N′-[2-ethanesulfonic acid]10 mM}, non-essential amino acids (0.1 mM) and Penicillin Streptomycin(IX). Seven days prior to assay, MCF-7 cells are switched to assay media which is the same as maintenance medium except supplemented with 10% dextran-coated charcoal-stripped fetal bovine serum (DCC-FBS) assay medium in place of 10% FBS. MCF-7 cells are removed from flasks using 10× Trypsin EDTA (phenol red free, Gibco BRL) and diluted to 1× in (Ca++/Mg++ free HBSS (phenol red-free). Cells are adjusted to 80,000 cells/ml in assay medium. […] For each of the agonist plates, a basal level (media), and a maximum stimulated level (with 1 μM E2) is determined. For each of the antagonist plates, a basal level (media) and a E2 (10 pM) alone control is determined. […] The plates are incubated overnight in the same incubator and then counted on the Wallac Microbeta counter. […] For the agonist mode, an EC50 and percent of maximum E2 stimulation and concentration of maximum stimulation is calculated. […]

Another experiment concerns the target T1, ERAlpha receptor (Homo sapiens, UniProt P03372).
T1 construct: purchased PanVera
T1 sequence (P03372 1-595): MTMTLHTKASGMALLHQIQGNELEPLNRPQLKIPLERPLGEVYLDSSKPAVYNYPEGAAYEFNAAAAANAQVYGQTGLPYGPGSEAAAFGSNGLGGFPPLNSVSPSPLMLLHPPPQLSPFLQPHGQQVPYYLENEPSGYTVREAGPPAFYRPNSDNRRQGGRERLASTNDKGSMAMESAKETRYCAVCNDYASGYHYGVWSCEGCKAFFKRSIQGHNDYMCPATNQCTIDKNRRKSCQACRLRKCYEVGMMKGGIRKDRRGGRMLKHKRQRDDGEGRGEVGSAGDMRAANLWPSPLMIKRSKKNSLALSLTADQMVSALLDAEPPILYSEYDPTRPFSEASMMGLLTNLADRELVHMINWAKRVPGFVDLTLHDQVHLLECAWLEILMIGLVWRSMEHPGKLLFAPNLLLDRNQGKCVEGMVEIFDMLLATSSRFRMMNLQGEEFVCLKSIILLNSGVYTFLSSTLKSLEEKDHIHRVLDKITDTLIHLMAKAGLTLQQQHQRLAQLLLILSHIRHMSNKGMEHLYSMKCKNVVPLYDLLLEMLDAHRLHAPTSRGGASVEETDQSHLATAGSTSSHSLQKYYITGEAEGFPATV
Briefly: Competition binding assay, 3H-Estradiol, ER alpha. The note with it: IC50 converted to Ki using Cheng-Prusoff equation. How it is done:
(§1) Competition binding assay is run in a buffer containing 50 mM Hepes, pH 7.5, 1.5 mM EDTA, 150 mM NaCl, 10% glycerol, 1 mg/ml ovalbumin and 5 mM DTT, using 0.025 μCi per well ^3H-Estradiol(NEN #NET517 at […], 1 mCi/ml), 10 ng/well ERAlpha or ERbeta receptor (PanVera). Competing compounds are added at 10 different concentrations. Non-specific binding is determined in the presence of 1 μM of 17-B Estradiol. The binding reaction (140 μl) is incubated for 4 hours at room temperature, then 70 μl of cold DCC buffer is added to each reaction (DCC buffer contains per 50 ml of assay buffer, 0.75 g of charcoal (Sigma) and 0.25 g of dextran (Pharmacia)). Plates are mixed 8 minutes on an orbital shaker at 4° C. Plates are then centrifuged at 3,000 rpm at 4° C. for 10 minutes. An aliquot of 120 μl of the mix is transferred to another 96-well, white flat bottom plate (Costar) and 175 μl of Wallac Optiphase “Hisafe 3” scintillation fluid is added to each well. Plates are sealed and shaken vigorously on an orbital shaker. After an incubation of 2.5 hrs, read plates in a Wallac Microbeta counter. The data is used to calculate an IC50 and % Inhibition at 10 μM. The Kd for ^3H-Estradiol is determined by saturation binding to ER alpha and ER beta receptors. The IC50 values for compounds are converted to K; using Cheng-Prusoff equation and the Kd determined by saturation binding assay.

Experiment [2] concerns Ishikawa human endometrial tumor cells. The experiment in a line: Ishikawa cell alkaline phosphatase (PNPP) assay, antagonist mode. The class given is cell-based. The source says: Ishikawa human endometrial tumor cells are maintained in MEM (minimum essential medium, with Earle's salts and L-Glutamine, Gibco BRL, Gaithersburg, Md.), supplemented with 10% fetal bovine serum (FBS) (V/V), (Gibco BRL). One day prior to assay, growth media is changed to assay medium, DMEM/F-12 (3:1) (Dulbecco's Modified Eagle Medium: Nutrient Mixture F-12, 3:1 Mixture, phenol red-free, Gibco BRL) supplemented with 5% dextran coated charcoal stripped fetal bovine serum (DCC-FBS) (Hyclone, Logen, UT), L-Glutamine (2 mM), MEM sodium pyruvate (1 mM), HEPES (N-[2-hydroxyethyl]piperazine-N′-[2-ethanesulfonic acid]2 mM) all from Gibco BRL). After an overnight incubation, ishikawa cells are rinsed with Dulbecco's Phosphate Buffered Saline (1×) (D-PBS) without Ca^+2 and Mg^+2 (Gibco BRL), and trypsinized by a 3 minute incubation with 0.25% Trypsin/EDTA, phenol red-free (Gibco BRL). Cells are resuspended in assay medium and adjusted to 250,000 cells/ml. […] After a 20-minute incubation, plates are read on a spectophotometer at 405 nm. […] For the agonist mode, a % efficacy for each compound is calculated versus the response to Tamoxifen. For the antagonist mode, a % efficacy for each compound is calculated versus E2 (1 nM) alone.

A further experiment addresses T2, ERbeta receptor (Homo sapiens, UniProt Q92731).
T2 construct: purchased PanVera
Briefly: Competition binding assay, 3H-Estradiol, ER beta. The settings on record: IC50 converted to Ki using Cheng-Prusoff equation; read-out: Binding ER b Ki. As for the experimental part:
as §1

T2 sequence (Q92731 whole entry): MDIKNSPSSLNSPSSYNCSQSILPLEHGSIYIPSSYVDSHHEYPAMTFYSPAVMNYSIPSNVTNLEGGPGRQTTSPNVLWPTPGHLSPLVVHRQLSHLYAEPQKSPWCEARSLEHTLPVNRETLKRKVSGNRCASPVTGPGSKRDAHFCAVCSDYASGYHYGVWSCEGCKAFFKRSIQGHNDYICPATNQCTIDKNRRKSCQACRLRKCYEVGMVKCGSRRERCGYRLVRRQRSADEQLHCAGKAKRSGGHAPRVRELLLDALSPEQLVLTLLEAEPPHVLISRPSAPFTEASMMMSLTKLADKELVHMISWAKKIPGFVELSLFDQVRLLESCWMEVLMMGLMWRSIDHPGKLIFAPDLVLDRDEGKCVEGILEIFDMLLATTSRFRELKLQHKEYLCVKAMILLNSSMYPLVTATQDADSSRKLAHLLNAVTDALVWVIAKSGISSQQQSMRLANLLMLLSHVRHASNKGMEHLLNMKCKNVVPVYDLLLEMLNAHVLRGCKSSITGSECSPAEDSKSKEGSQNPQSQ

`COc1ccc(-c2ccc3cc(O)ccc3c2Oc2ccc(OCCCC[S+]([O-])CCCC(F)(F)C(F)(F)F)cc2)cc1` (stereo not drawn) [Example 2, 6-(4-Methoxy-phenyl)-5-{4-[4-(4,4,5,5,5-pentafluoro-pentane-sulfinyl)-butoxy]-phenoxy}-naphthalen-2-ol]: the “MCF-7 Antag. % Eff.” value in experiment [1] (10 pM E2, % inhibition @ 1 μM) is listed as 86%. Moreover, the IC50 was 2.5 nM in experiment [1] (Homo sapiens, MCF7, 10 pM E2, read-out: MCF-7 IC 50) and 6.8 nM in experiment [2] (Homo sapiens, Ishikawa, E2 1 nM, read-out: Ishikawa IC 50). The inhibition constant Ki at ERAlpha receptor was determined as 0.3 nM; on ERbeta receptor it was 0.2 nM. Further, in experiment [2] (% efficacy versus E2 (1 nM) alone), the “Ishikawa Antag. % Eff.” value was determined as 100%.

What is called Ki is a measure of affinity in units of concentration, obtained from inhibition or displacement.
